{"source": "patent US8168779B2", "about": "“Anhydrous crystalline β-maltose, its preparation and uses” (priority 2006, dated 2012)", "key": {"[1]": {"experiment": "Hygroscopicity test (moisture content under controlled relative humidity)", "type": "physicochemical", "settings": "27° C., listed as AC α-Mal (Control 2)", "method": "Moisture contents of the samples at respective periods were measured based on the change of weight from the start of the test. The moisture contents of the samples at the start of the test were measured by Karl Fischer's method."}, "[2]": {"experiment": "Deionized water-solidifying test (base for solidifying moisture-containing compositions)", "type": "physicochemical", "settings": "25° C.; for (Appearance) / Condition: after 20 hours from the dissolution; for Time of solidification completed / Time of solidification started: monitored for 2 hours", "text": "After completing the dissolution, each test solution was further stirred for four minutes and then the stirring was stopped. Successively, each test solution was left to stand and a solidification of the test solution by the crystallization of hydrous crystalline maltose was monitored macroscopically for two hours. In the cases of the solidified samples, the time of starting the crystallization and that of completing the solidification were checked. (However, the test solution dissolving 18.8 g of crystal was stopped stirring at three minutes after the dissolution because the crystallization of hydrous crystalline maltose was started immediately.) After monitoring macroscopically for two hours, each vessel containing any one of the sample solutions was closed and further left to stand for 18 hours. Then, the condition (appearance) of the test samples after 20 hours from the dissolution was monitored macroscopically and evaluated by the following three phases: (1) clear solution; (2) clouded solution; and (3) solidified. The samples prepared by using 10.0 g, 11.5 g, 13.3 g, or 18.8 g of the anhydrous crystalline α-maltose used in Example 2, as a substitute of the test samples, were treated by the same procedure as controls. The test was carried out in a room where a temperature was kept at 25° C. The results of each sample after 2 and 20 hours are shown in Table 5 and FIG. 13, and Table 6 and FIG. 14, respectively."}, "[3]": {"experiment": "Powderizing test by admixing deionized water", "type": "physicochemical", "settings": "25° C., listed as Anhydrous crystalline α-maltose (Control)", "method": "(§1) The usefulness of the crystal was judged by the amount of deionized water added to the limit of keeping the powder form. The form of the powder was evaluated by the following four phases: (1) powder; (2) lump (it keeps a powder form while it comprises lumps); (3) cake; and (4) paste. As a control, the anhydrous crystalline α-maltose used in Example 2 was treated by the same procedure. The test was carried out in a room where the temperature was kept at 25° C. The results of the test and the form of each sample after admixing with 1.25 ml of deionized water are shown in Table 7 and FIG. 15, respectively."}, "[4]": {"experiment": "Powderizing test by admixing dehydrated ethanol", "type": "physicochemical", "settings": "listed as Anhydrous crystalline α-maltose (Control)", "method": "as §1, with “respectively. […] The results of the test and the form of each sample after admixing with 6 ml of dehydrated ethanol are shown in Table 8 and FIG. 16, respectively.” for “respectively.”"}, "[5]": {"experiment": "Specific surface area by nitrogen adsorption isotherms (BET)", "type": "physicochemical", "settings": "BET method, listed as anhydrous crystalline α-maltose of Control 2", "method": "About 3 g of the anhydrous crystalline β-maltose, obtained in Example 1, was dried in the apparatus under a reduced pressure at about 40° C. for about 15 hours as a pretreatment, and then used for the measurement of specific surface area by the nitrogen adsorption isotherms. The result was analyzed by conventional BET (Brunnauer, Emmet, and Teller) method."}, "[6]": {"settings": "mercury filling method"}, "[7]": {"settings": "10.0 g dissolved in 10 g deionized water (50.0%)"}, "[8]": {"settings": "10.0 g dissolved in 10 g deionized water (calc. conc. 50.0%)"}, "[9]": {"settings": "11.5 g dissolved in 10 g deionized water (53.5%)"}, "[10]": {"settings": "11.5 g dissolved in 10 g deionized water (calc. conc. 53.5%)"}, "[11]": {"settings": "13.3 g dissolved in 10 g deionized water (57.0%)"}, "[12]": {"settings": "13.3 g dissolved in 10 g deionized water (calc. conc. 57.0%)"}, "[13]": {"settings": "18.8 g dissolved in 10 g deionized water (calc. conc. 65.0%)"}, "[14]": {"settings": "control values originate from space between crystal particles, not pores"}}, "data": [{"compound": "OC[C@H]1O[C@H](O[C@H]2[C@H](O)[C@@H](O)[C@H](O)O[C@@H]2CO)[C@H](O)[C@@H](O)[C@@H]1O", "note": "[anhydrous crystalline α-maltose]", "values": [{"measurement": "Moisture content of samples", "setting": "[1]; RH 47% (lithium nitrate), 0 hour (start, Karl Fischer)", "result": "0.74 %, w/w"}, {"measurement": "Moisture content of samples", "setting": "[1]; RH 47% (lithium nitrate), 2 hours", "result": "0.70 %, w/w"}, {"measurement": "Moisture content of samples", "setting": "[1]; RH 47% (lithium nitrate), 4 hours", "result": "0.70 %, w/w"}, {"measurement": "Moisture content of samples", "setting": "[1]; RH 47% (lithium nitrate), 24 hours", "result": "0.65 %, w/w"}, {"measurement": "Moisture content of samples", "setting": "[1]; RH 47% (lithium nitrate), 96 hours", "result": "0.71 %, w/w"}, {"measurement": "Moisture content of samples", "setting": "[1]; RH 47% (lithium nitrate), 192 hours", "result": "0.70 %, w/w"}, {"measurement": "Moisture content of samples", "setting": "[1]; RH 58% (sodium bromide), 0 hour (start, Karl Fischer)", "result": "0.74 %, w/w"}, {"measurement": "Moisture content of samples", "setting": "[1]; RH 58% (sodium bromide), 2 hours", "result": "0.74 %, w/w"}, {"measurement": "Moisture content of samples", "setting": "[1]; RH 58% (sodium bromide), 4 hours", "result": "0.76 %, w/w"}, {"measurement": "Moisture content of samples", "setting": "[1]; RH 58% (sodium bromide), 6 hours", "result": "0.80 %, w/w"}, {"measurement": "Moisture content of samples", "setting": "[1]; RH 58% (sodium bromide), 8 hours", "result": "0.79 %, w/w"}, {"measurement": "Moisture content of samples", "setting": "[1]; RH 58% (sodium bromide), 24 hours", "result": "0.83 %, w/w"}, {"measurement": "Moisture content of samples", "setting": "[1]; RH 58% (sodium bromide), 96 hours", "result": "0.98 %, w/w"}, {"measurement": "Moisture content of samples", "setting": "[1]; RH 58% (sodium bromide), 192 hours", "result": "0.91 %, w/w"}, {"measurement": "Moisture content of samples", "setting": "[1]; RH 75% (sodium chloride), 0 hour (start, Karl Fischer)", "result": "0.74 %, w/w"}, {"measurement": "Moisture content of samples", "setting": "[1]; RH 75% (sodium chloride), 2 hours", "result": "1.18 %, w/w"}, {"measurement": "Moisture content of samples", "setting": "[1]; RH 75% (sodium chloride), 4 hours", "result": "2.44 %, w/w"}, {"measurement": "Moisture content of samples", "setting": "[1]; RH 75% (sodium chloride), 6 hours", "result": "2.88 %, w/w"}, {"measurement": "Moisture content of samples", "setting": "[1]; RH 75% (sodium chloride), 8 hours", "result": "3.14 %, w/w"}, {"measurement": "Moisture content of samples", "setting": "[1]; RH 75% (sodium chloride), 24 hours", "result": "3.84 %, w/w"}, {"measurement": "Moisture content of samples", "setting": "[1]; RH 75% (sodium chloride), 96 hours", "result": "3.85 %, w/w"}, {"measurement": "Moisture content of samples", "setting": "[1]; RH 75% (sodium chloride), 192 hours", "result": "4.49 %, w/w"}, {"measurement": "Moisture content of samples", "setting": "[1]; RH 90% (barium chloride), 0 hour (start, Karl Fischer)", "result": "0.74 %, w/w"}, {"measurement": "Moisture content of samples", "setting": "[1]; RH 90% (barium chloride), 2 hours", "result": "1.79 %, w/w"}, {"measurement": "Moisture content of samples", "setting": "[1]; RH 90% (barium chloride), 4 hours", "result": "4.30 %, w/w"}, {"measurement": "Moisture content of samples", "setting": "[1]; RH 90% (barium chloride), 6 hours", "result": "6.29 %, w/w"}, {"measurement": "Moisture content of samples", "setting": "[1]; RH 90% (barium chloride), 8 hours", "result": "7.82 %, w/w"}, {"measurement": "Moisture content of samples", "setting": "[1]; RH 90% (barium chloride), 24 hours", "result": "15.78 %, w/w"}, {"measurement": "Moisture content of samples", "setting": "[1]; RH 90% (barium chloride), 96 hours", "result": "17.77 %, w/w"}, {"measurement": "Moisture content of samples", "setting": "[1]; RH 90% (barium chloride), 192 hours", "result": "14.38 %, w/w"}, {"measurement": "(Appearance)", "setting": "[2]; [7]", "result": "(Clear solution)"}, {"measurement": "Condition", "setting": "[2]; [7]", "result": "Not solidified"}, {"measurement": "Time of solidification completed", "setting": "[2]; [8]", "result": "Not solidified"}, {"measurement": "Time of solidification started", "setting": "[2]; [8]", "result": "Not solidified"}, {"measurement": "(Appearance)", "setting": "[2]; [9]", "result": "(Clear solution)"}, {"measurement": "Condition", "setting": "[2]; [9]", "result": "Not solidified"}, {"measurement": "Time of solidification completed", "setting": "[2]; [10]", "result": "Not solidified"}, {"measurement": "Time of solidification started", "setting": "[2]; [10]", "result": "Not solidified"}, {"measurement": "(Appearance)", "setting": "[2]; [11]", "result": "(Clouded solution)"}, {"measurement": "Condition", "setting": "[2]; [11]", "result": "Not solidified"}, {"measurement": "Time of solidification completed", "setting": "[2]; [12]", "result": "Not solidified"}, {"measurement": "Time of solidification started", "setting": "[2]; [12]", "result": "Not solidified"}, {"measurement": "Condition", "setting": "[2]; 18.8 g dissolved in 10 g deionized water (65.0%)", "result": "Solidified"}, {"measurement": "Time of solidification completed", "setting": "[2]; [13]", "result": "Not solidified"}, {"measurement": "Time of solidification started", "setting": "[2]; [13]", "result": "Not solidified"}, {"measurement": "Form of the powder after admixing deionized water", "setting": "[3]; 10 g crystal + 0.75 ml water (moisture content 7.0%, w/w)", "result": "Lump form"}, {"measurement": "Form of the powder after admixing deionized water", "setting": "[3]; 10 g crystal + 1.00 ml water (moisture content 9.1%, w/w)", "result": "Cake form"}, {"measurement": "Form of the powder after admixing deionized water", "setting": "[3]; 10 g crystal + 1.25 ml water (moisture content 11.1%, w/w)", "result": "Paste form"}, {"measurement": "Form of the powder after admixing dehydrated ethanol", "setting": "[4]; 10 g crystal + 3.5 ml ethanol (27.5 v/w %)", "result": "Lump form"}, {"measurement": "Form of the powder after admixing dehydrated ethanol", "setting": "[4]; 10 g crystal + 4.0 ml ethanol (30.5 v/w %)", "result": "Cake form"}, {"measurement": "Form of the powder after admixing dehydrated ethanol", "setting": "[4]; 10 g crystal + 4.5 ml ethanol (33.3 v/w %)", "result": "Cake form"}, {"measurement": "Form of the powder after admixing dehydrated ethanol", "setting": "[4]; 10 g crystal + 5.0 ml ethanol (36.0 v/w %)", "result": "Cake form"}, {"measurement": "Form of the powder after admixing dehydrated ethanol", "setting": "[4]; 10 g crystal + 5.5 ml ethanol (38.5 v/w %)", "result": "Paste form"}, {"measurement": "Form of the powder after admixing dehydrated ethanol", "setting": "[4]; 10 g crystal + 6.0 ml ethanol (40.9 v/w %)", "result": "Paste form"}, {"measurement": "Specific surface area", "setting": "[5]", "result": 0.48, "unit": "m^2/g"}, {"measurement": "Intrusion volume", "setting": "[6]; initial pressure 15 kPa", "result": "(No pore)"}, {"measurement": "Median pore diameter", "setting": "[6]; [14]", "result": 13.00, "unit": "μm"}, {"measurement": "Mode pore diameter", "setting": "[6]; [14]", "result": 20.70, "unit": "μm"}]}]}
